14 compounds from ChEMBL document CHEMBL1133201, “Synthesis and cytotoxic activity of acetogenin analogues” (Bioorg Med Chem Lett, 2000) can be followed below.

Some results are limits rather than exact numbers.

The experiment deals with L1210. Nature of the experiment: In vitro inhibitory activity was tested against L1210 leukemia cells. It counts as functional, cell-based. The settings on record: Mus musculus.
Regarding `COc1ccc([C@H](O)COCCOC[C@H](O)C#CCCCCCCC[C@@H]2CC(CC(C)=O)C(=O)O2)cc1` (some centres undefined), the IC50 was greater than 10000 nM.

In turn, `CCCCCCCCCC[C@H](O)COCCOC[C@H](O)C#CCCCCCCC[C@@H]1CC(CC(C)=O)C(=O)O1` (some centres undefined) displayed an IC50 of 3500 nM.

`CCCCN(CCCC)[C@@H](O)COCCOC[C@@H](O)C#CCCCCCCC[C@@H]1CC(CC(C)=O)C(=O)O1` (some centres undefined) returned an IC50 of 2500 nM.

`CC(=O)CC1C[C@@H](CCCCCCCC#C[C@@H](O)COCCOC[C@@H](O)c2ccc(C(F)(F)F)cc2)OC1=O` (some centres undefined) came in with an IC50 of 3300 nM.

In turn, `CC(=O)CC1C[C@@H](CCCCCCCC#C[C@@H](O)COCCOC[C@@H](O)c2ccccc2)OC1=O` (some centres undefined) showed an IC50 of 19800 nM.

As for `CC(=O)CC1C[C@@H](CCCCCCCC#C[C@@H](O)COCCOC[C@@H](O)OC2CC[C@]3(C)C(=CC[C@@H]4[C@H]5CC[C@@H]([C@@H](C)CCCC(C)C)[C@]5(C)CC[C@H]43)C2)OC1=O` (some centres undefined), the IC50 came out at 2800 nM.

Take `CC(=O)CC1C[C@@H](CCCCCCCC#C[C@H](O)COCCOC[C@H](O)c2ccc3ccccc3c2)OC1=O` (some centres undefined): the IC50 is 3000 nM. This IC50 and that of the compound before are within 1.5-fold of each other.

`COc1ccc([C@@H](O)COCCOC[C@@H](O)C#CCCCCCCC[C@@H]2CC(CC(C)=O)C(=O)O2)cc1` (some centres undefined) yielded an IC50 of 32000 nM.

Consider `CC(=O)CC1C[C@@H](CCCCCCCC#C[C@@H](O)COCCOC[C@@H](O)N2CCCCC2)OC1=O` (some centres undefined), for which the IC50 was 28700 nM.

`CCCCCCCCCC[C@@H](O)COCCOC[C@@H](O)C#CCCCCCCC[C@@H]1CC(CC(C)=O)C(=O)O1` (some centres undefined) gave an IC50 of 1000 nM. Against the preceding compound, the IC50 is about 29-fold lower.

In turn, `CC(=O)CC1C[C@@H](CCCCCCCC#C[C@H](O)COCCOC[C@H](O)c2ccccc2)OC1=O` (some centres undefined) returned an IC50 of 21600 nM.

For the compound `CCCCCCCCCCCC[C@@H](O)[C@H]1CC[C@H]([C@H](O)CCCC[C@H](O)CCCCC[C@@H](O)CC2=CC(C)OC2=O)O1` (some centres undefined) [ANNONACIN], it took 42 nM to reach half-maximal inhibition (IC50).

For `CCCCCCCCCC[C@H](O)[C@H]1CC[C@H]([C@H]2CC[C@H]([C@H](O)CCCCCCCCCC[C@@H]3CC(CC(C)=O)C(=O)O3)O2)O1` (some centres undefined) [BULLATACINONE], the IC50 turned out to be 16 nM.

`CCCCCCCCCC[C@@H](O)[C@@H]1CC[C@@H]([C@@H]2CC[C@@H]([C@H](O)CCCCCCCCCC(O)CC3=CC(C)OC3=O)O2)O1` (some centres undefined) [BULLATACIN] yielded an IC50 of 0.4 nM.
